{
  "source": "patent US20050163855A1",
  "about": "“Method of preparing low-crystallinity oltipraz or amorphous oltipraz” (CJ CORPORATION, priority 2004, published 2005)",
  "key": {"[1]": {"conditions": "cited from earlier work"}},
  "data": [
    {"smiles": "Cc1c(-c2cnccn2)ssc1=S", "note": "[oltipraz]", "values": [
      {"measurement": "solubility", "setting": "physchem; Cremophor EL, organic solvent or mixture", "result": 9.44, "unit": "mg/mL"},
      {"measurement": "solubility", "setting": "physchem; Cremophor RH40, organic solvent or mixture", "result": 10.7, "unit": "mg/mL"},
      {"measurement": "solubility", "setting": "physchem; Dimethylisosorbide, organic solvent or mixture", "result": 17.2, "unit": "mg/mL"},
      {"measurement": "solubility", "setting": "physchem; Labrasol, organic solvent or mixture", "result": 12.6, "unit": "mg/mL"},
      {"measurement": "solubility", "setting": "physchem; N,N-dimethylformamide, organic solvent or mixture", "result": 31.3, "unit": "mg/mL"},
      {"measurement": "solubility", "setting": "physchem; N-methypyrrolidone, organic solvent or mixture", "result": 13.7, "unit": "mg/mL"},
      {"measurement": "solubility", "setting": "physchem; Polymethylene glycol 200, organic solvent or mixture", "result": 7.99, "unit": "mg/mL"},
      {"measurement": "solubility", "setting": "physchem; Polymethylene glycol 400, organic solvent or mixture", "result": 10.5, "unit": "mg/mL"},
      {"measurement": "solubility", "setting": "physchem; Polypropylene glycol, organic solvent or mixture", "result": 0.57, "unit": "mg/mL"},
      {"measurement": "solubility", "setting": "physchem; Tetraglycol, organic solvent or mixture", "result": 13.6, "unit": "mg/mL"},
      {"measurement": "solubility", "setting": "physchem; Transcutol, organic solvent or mixture", "result": 10.3, "unit": "mg/mL"},
      {"measurement": "solubility", "setting": "physchem; acetone, organic solvent or mixture", "result": 4.05, "unit": "mg/mL"},
      {"measurement": "solubility", "setting": "physchem; acetonitrile, organic solvent or mixture", "result": 2.73, "unit": "mg/mL"},
      {"measurement": "solubility", "setting": "physchem; chloroform, organic solvent or mixture", "result": 28.6, "unit": "mg/mL"},
      {"measurement": "solubility", "setting": "physchem; dimethyl sulfoxide, organic solvent or mixture", "result": 29.1, "unit": "mg/mL"},
      {"measurement": "solubility", "setting": "physchem; ethanol, organic solvent or mixture", "result": 0.67, "unit": "mg/mL"},
      {"measurement": "solubility", "setting": "physchem; methanol, organic solvent or mixture", "result": 0.5, "unit": "mg/mL"},
      {"measurement": "solubility", "setting": "physchem; methylene chloride, organic solvent or mixture", "result": 7.6, "unit": "mg/mL"},
      {"measurement": "water solubility", "setting": "[1]", "result": "≤ 0.001", "unit": "mg/mL"}
    ]}
  ]
}
